Assay results: US9428462B2, “4-[-2-[[5-methyl-1-(2-naphthalenyl)-1H-pyrazol-3-yl]oxy]ethyl]morpholine hydrochloride amorphous solid forms” (priority 2010, dated 2016)

Legend:
Assay type in all cases: physicochemical
[1] = Drying experiments of the amorphous phase for four hours at different temperatures, solid analyzed by PXRD; details: for Solid phase after drying: PXRD
Method: (§1) Approximately 20 mg of the non manipulated samples were prepared in standard sample holders using two foils of polyacetate.
(§2) Powder diffraction patterns were acquired on a D8 Advance Series 2Theta/Theta powder diffraction system using CuKα-radiation in transmission geometry (Wavelength: 1.54060 Å). The system was equipped with a VANTEC-1 single photon counting PSD, a Germanium monochromator, a ninety positions auto changer sample stage, fixed divergence slits and radial soller. Programs used: Data collection with DIFFRAC plus XRD Commander V.2.5.1 and evaluation with EVA V.12.0.
In order to test the stability of the amorphous phase and to investigate its stability, different portions of the amorphous phase were dried for four hours at different temperatures (table 5). Once the samples were dried the solid was analyzed by PXRD.

[2] = 1H NMR check of the stability of the salt in amorphous form samples; details: several samples of the amorphous form, CDCl3
Method: In addition, several samples of the amorphous form obtained were analyzed by ^1H NMR in order to check the stability of the salt (FIG. 2 is a ^1H NMR spectrum of the amorphous phase).
Proton nuclear magnetic resonance analyses were recorded in deuterated chloroform (CDCl3) in a Bruker Avance 400 Ultrashield NMR spectrometer, equipped with a z-gradient 5 mm BBO (Broadband Observe) probe with ATM and an automatic BACS-120 autosampler. Spectra were acquired solving 2-10 mg of sample in 0.6 mL of deuterated solvent.

[3] = Drying experiments of the amorphous phase under vacuum (5-7 mbar) at different temperatures and times, solid analyzed by PXRD; details: for Solid phase after drying under vacuum: PXRD
Method: as §1, §2
In a second experiment, different portions of the amorphous phase were dried under vacuum conditions (5-7 mbar) at room temperature, 40° C. and 60° C. for different times (4, 8, 16 and 24 hours; table 6). Once the samples were dried, the solid was analyzed by PXRD. […] In the experiments performed at 40° C. the amorphous phase began to crystallize after 16 hours. In the experiments performed at 60° C. the amorphous phase began to crystallize after 8 hours and phase I could be clearly identified after 16 hours.

- Solid phase after drying ([1]; Sample 1: dried four hours at rt): amorphous
- Solid phase after drying ([1]; Sample 2: dried four hours at 40 °C): amorphous
- Solid phase after drying ([1]; Sample 3: dried four hours at 50 °C): amorphous
- Solid phase after drying ([1]; Sample 4: dried four hours at 60 °C): amorphous
- Solid phase after drying ([1]; Sample 5: dried four hours at 80 °C): amorphous + crystalline
- Solid phase after drying ([1]; Sample 6: dried four hours at 90 °C): amorphous + crystalline
- Solid phase after drying ([1]; Sample 7: dried four hours at 100 °C): phase I + crystalline
- Solid phase after drying ([1]; Sample 8: dried four hours at 110 °C): phase I
- Solid phase after drying ([1]; Sample 9: dried four hours at 120 °C): phase I
- Stability of the amorphous phase on drying ([1]; four hours at temperature higher than 100° C.): transformed clearly to phase I
- Stability of the amorphous phase on drying ([1]; temperatures up to 60° C. for four hours): amorphous phase was recovered
- Solid phase after drying under vacuum ([3]; Sample 10: vacuum 5-7 mbar, 23° C., 4 hours): amorphous
- Solid phase after drying under vacuum ([3]; Sample 11: vacuum 5-7 mbar, 23° C., 8 hours): amorphous
- Solid phase after drying under vacuum ([3]; Sample 12: vacuum 5-7 mbar, 23° C., 16 hours): amorphous
- Solid phase after drying under vacuum ([3]; Sample 13: vacuum 5-7 mbar, 23° C., 24 hours): amorphous
- Solid phase after drying under vacuum ([3]; Sample 14: vacuum 5-7 mbar, 40° C., 4 hours): amorphous
- Solid phase after drying under vacuum ([3]; Sample 15: vacuum 5-7 mbar, 40° C., 8 hours): amorphous
- Solid phase after drying under vacuum ([3]; Sample 16: vacuum 5-7 mbar, 40° C., 16 hours): amorphous + phase I
- Solid phase after drying under vacuum ([3]; Sample 17: vacuum 5-7 mbar, 40° C., 24 hours): amorphous + phase I
- Solid phase after drying under vacuum ([3]; Sample 18: vacuum 5-7 mbar, 60° C., 4 hours): amorphous
- Solid phase after drying under vacuum ([3]; Sample 19: vacuum 5-7 mbar, 60° C., 8 hours): amorphous + phase I
- Solid phase after drying under vacuum ([3]; Sample 20: vacuum 5-7 mbar, 60° C., 16 hours): phase I
- Solid phase after drying under vacuum ([3]; Sample 21: vacuum 5-7 mbar, 60° C., 24 hours): phase I
- Time after which the amorphous phase began to crystallize ([3]; vacuum 5-7 mbar, 40° C.): 16 h
- Time after which phase I could be clearly identified ([3]; vacuum 5-7 mbar, 60° C.): 16 h
- Time after which the amorphous phase began to crystallize ([3]; vacuum 5-7 mbar, 60° C.): 8 h
- Stability of the amorphous phase on drying under vacuum ([3]; vacuum 5-7 mbar, room temperature, up to 24 hours): did not change after drying
SMILES: Cc1cc(OCCN2CCOCC2)nn1-c1ccc2ccccc2c1.Cl [amorphous phase, 4-[2-[[5-methyl-1-(2-naphthalenyl)-1H-pyrazol-3-yl]oxy]ethyl]morpholine hydrochloride]
- Stability of the amorphous phase on drying ([1]; temperatures over 60° C., four hours): transformed slightly to a crystalline phase, not clearly identified
- Stability of the salt by 1H NMR [2]: no signs of the lost of HCl or decomposition of the samples could be observed
